In ChEMBL document CHEMBL1926563, “Synthesis, antimicrobial, antimycobacterial and structure-activity relationship of substituted pyrazolo-, isoxazolo-, pyrimido- and mercaptopyrimidocyclohepta[b]indoles” (2012):
≈ marks a conversion by molar mass, not a printed value. Calls of active or inactive are those of the source. No cut-off for these calls is given here.

What was measured:
Proteus vulgaris [1] = assay: Antibacterial activity against Proteus vulgaris NCIM 2027 assessed as zone of inhibition at 200 ug/disc after 24 hrs by disk diffusion method; format: functional; details: NCIM 2027, 24 h, read-out: DIZ
[2] = test system: Mycobacterium tuberculosis; assay: Antimycobacterial activity against Mycobacterium tuberculosis H37Rv after 7 days by resazurin microtiter plate assay; format: functional; details: 168 h
Bacillus subtilis [3] = assay: Antibacterial activity against Bacillus subtilis NCIM 2063 after 24 hrs by disk diffusion method; format: functional; details: NCIM 2063, 24 h
Proteus vulgaris [4] = assay: Antibacterial activity against Proteus vulgaris NCIM 2027 after 24 hrs by disk diffusion method; format: functional; details: NCIM 2027, 24 h
Fusarium solani [5] = assay: Antifungal activity against Fusarium solani NCIM 1330 assessed as zone of inhibition at 200 ug/disc after 48 hrs by disk diffusion method; format: functional; details: NCIM 1330, 48 h, read-out: DIZ
Bacillus subtilis [6] = assay: Antibacterial activity against Bacillus subtilis NCIM 2063 assessed as zone of inhibition at 100 ug/disc after 24 hrs by disk diffusion method; format: functional; details: NCIM 2063, 24 h, read-out: DIZ
Curvularia lunata [7] = assay: Antifungal activity against Curvularia lunata NCIM 716 assessed as zone of inhibition at 200 ug/disc after 48 hrs by disk diffusion method; format: functional; details: NCIM 716, 48 h, read-out: DIZ
Aspergillus niger [8] = assay: Antifungal activity against Aspergillus niger NCIM 596 after 48 hrs by disk diffusion method; format: functional; details: NCIM 596, 48 h
Staphylococcus aureus [9] = assay: Antibacterial activity against Staphylococcus aureus NCIM 5021 assessed as zone of inhibition at 200 ug/disc after 24 hrs by disk diffusion method; format: functional; details: NCIM 5021, 24 h, read-out: DIZ
Staphylococcus aureus [10] = assay: Antibacterial activity against Staphylococcus aureus NCIM 5021 after 24 hrs by disk diffusion method; format: functional; details: NCIM 5021, 24 h
Curvularia lunata [11] = assay: Antifungal activity against Curvularia lunata NCIM 716 after 48 hrs by disk diffusion method; format: functional; details: NCIM 716, 48 h
Aspergillus niger [12] = assay: Antifungal activity against Aspergillus niger NCIM 596 assessed as zone of inhibition at 200 ug/disc after 48 hrs by disk diffusion method; format: functional; details: NCIM 596, 48 h, read-out: DIZ
Klebsiella pneumoniae [13] = assay: Antibacterial activity against Klebsiella pneumoniae NCIM 2957 assessed as zone of inhibition at 100 ug/disc after 24 hrs by disk diffusion method; format: functional; details: NCIM 2957, 24 h, read-out: DIZ
Aspergillus niger [14] = assay: Antifungal activity against Aspergillus niger NCIM 596 assessed as zone of inhibition at 100 ug/disc after 48 hrs by disk diffusion method; format: functional; details: NCIM 596, 48 h, read-out: DIZ
Proteus vulgaris [15] = assay: Antibacterial activity against Proteus vulgaris NCIM 2027 assessed as zone of inhibition at 100 ug/disc after 24 hrs by disk diffusion method; format: functional; details: NCIM 2027, 24 h, read-out: DIZ
Fusarium solani [16] = assay: Antifungal activity against Fusarium solani NCIM 1330 assessed as zone of inhibition at 100 ug/disc after 48 hrs by disk diffusion method; format: functional; details: NCIM 1330, 48 h, read-out: DIZ
Fusarium solani [17] = assay: Antifungal activity against Fusarium solani NCIM 1330 after 48 hrs by disk diffusion method; format: functional; details: NCIM 1330, 48 h
Curvularia lunata [18] = assay: Antifungal activity against Curvularia lunata NCIM 716 assessed as zone of inhibition at 100 ug/disc after 48 hrs by disk diffusion method; format: functional; details: NCIM 716, 48 h, read-out: DIZ
Klebsiella pneumoniae [19] = assay: Antibacterial activity against Klebsiella pneumoniae NCIM 2957 assessed as zone of inhibition at 200 ug/disc after 24 hrs by disk diffusion method; format: functional; details: NCIM 2957, 24 h, read-out: DIZ
Bacillus subtilis [20] = assay: Antibacterial activity against Bacillus subtilis NCIM 2063 assessed as zone of inhibition at 200 ug/disc after 24 hrs by disk diffusion method; format: functional; details: NCIM 2063, 24 h, read-out: DIZ
Staphylococcus aureus [21] = assay: Antibacterial activity against Staphylococcus aureus NCIM 5021 assessed as zone of inhibition at 100 ug/disc after 24 hrs by disk diffusion method; format: functional; details: NCIM 5021, 24 h, read-out: DIZ
Klebsiella pneumoniae [22] = assay: Antibacterial activity against Klebsiella pneumoniae NCIM 2957 after 24 hrs by disk diffusion method; format: functional; details: NCIM 2957, 24 h
[23] = test system: Mycobacterium tuberculosis; assay: Antimycobacterial activity against Mycobacterium tuberculosis H37Rv at 1.5 to 50 ug/ml after 7 days by resazurin microtiter plate assay; format: functional, organism-based

SMILES | zone of inhibition at 200 µg/disc (Proteus vulgaris [1]) | MIC [2] | MIC (Bacillus subtilis [3]) | MIC (Proteus vulgaris [4]) | zone of inhibition at 200 µg/disc (Fusarium solani [5]) | zone of inhibition at 100 µg/disc (Bacillus subtilis [6]) | zone of inhibition at 200 µg/disc (Curvularia lunata [7]) | MIC (Aspergillus niger [8]) | zone of inhibition at 200 µg/disc (Staphylococcus aureus [9]) | MIC (Staphylococcus aureus [10]) | MIC (Curvularia lunata [11]) | zone of inhibition at 200 µg/disc (Aspergillus niger [12]) | zone of inhibition at 100 µg/disc (Klebsiella pneumoniae [13]) | zone of inhibition at 100 µg/disc (Aspergillus niger [14]) | zone of inhibition at 100 µg/disc (Proteus vulgaris [15]) | zone of inhibition at 100 µg/disc (Fusarium solani [16]) | zone of inhibition at 100 µg/disc (Curvularia lunata [18]) | zone of inhibition at 200 µg/disc (Klebsiella pneumoniae [19]) | zone of inhibition at 200 µg/disc (Bacillus subtilis [20]) | zone of inhibition at 100 µg/disc (Staphylococcus aureus [21]) | other results
Oc1ncc2c(n1)-c1[nH]c3ccc(Cl)cc3c1CCC2 | 20 mm | 3.12 µg/mL (≈ 10.9 µM) | 50 µg/mL (≈ 175 µM) | 100 µg/mL (≈ 350 µM) | 20 mm | 25 mm | 23 mm | 50 µg/mL (≈ 175 µM) | 27 mm | 50 µg/mL (≈ 175 µM) | 50 µg/mL (≈ 175 µM) | 19 mm | 22 mm | 16 mm | 22 mm | 17 mm | 19 mm | 25 mm | 28 mm | 26 mm | MIC (Fusarium solani [17]): 100 µg/mL (≈ 350 µM); MIC (Klebsiella pneumoniae [22]): 100 µg/mL (≈ 350 µM)
Clc1ccc2[nH]c3c(c2c1)CCCc1cnn(-c2ccccc2)c1-3 | 31 mm | 3.12 µg/mL (≈ 9.35 µM) | 25 µg/mL (≈ 74.9 µM) | 50 µg/mL (≈ 150 µM) | 39 mm | 33 mm | 38 mm | 100 µg/mL (≈ 300 µM) | 34 mm | 25 µg/mL (≈ 74.9 µM) | 100 µg/mL (≈ 300 µM) | 35 mm | 28 mm | 30 mm | 29 mm | 32 mm | 31 mm | 30 mm | 32 mm | 32 mm | MIC (Fusarium solani [17]): 200 µg/mL (≈ 599 µM); MIC (Klebsiella pneumoniae [22]): 50 µg/mL (≈ 150 µM)
c1ccc2c3c([nH]c2c1)-c1n[nH]cc1CCC3 | 25 mm | – | – | – | 35 mm | 26 mm | 33 mm | – | 29 mm | – | – | 31 mm | 23 mm | 28 mm | 22 mm | 30 mm | 31 mm | 26 mm | 28 mm | 27 mm | MIC [23]: inactive
Clc1ccc2[nH]c3c(c2c1)CCCc1c[nH]nc1-3 | 33 mm | 12.5 µg/mL (≈ 48.5 µM) | 100 µg/mL (≈ 388 µM) | 100 µg/mL (≈ 388 µM) | 39 mm | 35 mm | 38 mm | 200 µg/mL (≈ 776 µM) | 36 mm | 100 µg/mL (≈ 388 µM) | 200 µg/mL (≈ 776 µM) | 35 mm | 30 mm | 32 mm | 31 mm | 35 mm | 34 mm | 32 mm | 37 mm | 34 mm | MIC (Fusarium solani [17]): 200 µg/mL (≈ 776 µM); MIC (Klebsiella pneumoniae [22]): 100 µg/mL (≈ 388 µM)
